Here are results for ten compounds from patent US20100261710A1, “HDAC Inhibitors” (ARQULE, INC., priority 2007, published 2010).

The target in one data set is T1, HDAC1 (Homo sapiens, UniProt Q13547).
T1 construct: cell extract containing HDAC (HeLa in these experiments); endogenous in cells; host or cells: HeLa cell extract
The experiment in a line: HDAC-1 immunocapture fluorescent biochemical assay (HeLa lysate). As to conditions: HDAC1 immunocaptured from HeLa extract. As to the method: The HDAC-1 assay represents a novel immunocapture assay procedure. […] The HDAC1 is captured on a protein A coated plate using HDAC1 specific antibody, and is then allowed to react with the substrate.
This assay in performed in four general steps. In the first step (FIG. 1A), cell extract containing HDAC (HeLa in these experiments) is incubated with (cell signaling) rabbit polyclonal HDAC1 antibody (rabbit IgG antibody is used for background control) to allow binding of the enzyme to the antibody. In the second step, the complexed mixture is added to the protein A covered plate which captures the antibody. In the third step, after washing away unbound proteins, substrate and inhibitor are added and deacetylation is allowed to occur. […] The plate is then read on either Victor or Perkin Elmer Envision system using Umbilliferone filter set.
• A. HeLa extract complexed with HDAC1 antibody working solution (in DPBS):
Compound working solution (in HDAC buffer):
Compounds diluted in assay buffer at 2× Screening concentration. • D. Activator solution:
Trypsin (10 mg/mL) diluted 1:1600 in assay buffer containing 4 μM TSA.
Complexing of extract with antibody was carried out at room temperature for 60 min with rocking. Binding of complexes onto protein A plate was carried out at room temperature for 60 min in 50 μL. Reaction was carried out in […], in the protein A plate for 60 minutes at 37° C. 40 μL of the reaction was moved into white ½ area plate for activation and reading.
• 1. Set PIERCE Protein A plate to block with 150 μof 5% BSA in TB ST for 60 min at room temperature. • 2. […] Dilute complexes further ([…]) by addition of 3.5 mL of PBS (final total volume of 5 mL). • 4. Wash blocked protein A plate prior to complex addition with TBST. • 5. Add 50 μl of diluted complexes to Protein A plate and incubate for 60 min at room temperature. • 6. Wash plate with TB ST. • 7. Add 25 μl of diluted compounds (in HDAC buffer) to each well and incubate for 10 min at room temperature. • 8. […] Move 40 μl of reaction to a white plate and add 20 μl of activator/developer solution, mix thoroughly. • 10. Read plate.

Data set [1] relates to HDACs (nuclear HeLa extract). The experiment in a line: pan-HDAC fluorescent biochemical assay with nuclear HeLa extract. As to conditions: HDAC peptide substrate, 60 min at 37° C. As to the method: Substrate was synthesized in house. Stocks were prepared in DMSO (10 mM).
Compound working solution: Compounds dissolved in assay buffer at 4× Screening concentration. Activator solution: Trypsin (10 mg/mL) diluted 1:1600 in Assay Buffer containing 4 μM TSA.
Total reaction Volume: 40 μL
Reaction was allowed to run for 60 minutes at 37° C.
2. Combine in a white ½ area well plate: 10 μl of 4× compound (or buffer), 15 μl of substrate and 15 μl of HeLa extract. Mix well
3. Incubate at 37° C. for 60 min.
4. Prepare Activator solution. Dilute Trypsin 1:1600 in Assay Buffer+4μM TSA. 20 μl is needed per assay point.
5. Add 20 μl of prepared activator solution and mix thoroughly.
The hydroxamic-acid based compounds of the present invention were tested in the biochemical assay for their pan-HDAC inhibitory activity.

Another data set concerns HCT-116 cells. The experiment in a line: MTS cell viability assay, HCT-116. The data set is classed as cell-based. As to conditions: Homo sapiens, HCT-116, 72 h, read-out: HCT-116, IG50, MTS (uM). The method, then: (§1) The MTS cell viability assay was used to determine the potency of proliferation inhibitor with. MTS measures mitochondrial dehydrogenase activity and serves as surrogate readout for the number of viable cells.
(§2) For MTS assay, cells were plated in 96-well plates at 2000 cells per well and incubated in the presence of compounds for 72 hr. MTS was added to each well as instructed by manufacture (Promega) and plates were incubated for 4 h at 37° C. The absorbance of each well was measured at 490 nm using a microplate reader.

A further data set addresses T2, HDAC2 (Homo sapiens, UniProt Q92769).
T2 construct: purchased BioMol
The data set is described as follows: HDAC isoform assay, HDAC2. The data set is classed as biochemical. As to conditions: substrate KI-177; read-out: HDAC2, IC50, ELISA (KI-177).

The next data set has as its target T3, HDAC3 (Homo sapiens, UniProt O15379).
T3 construct: purchased BioMol
The experiment in a line: HDAC isoform assay, HDAC3. In kind it is biochemical. As to conditions: substrate KI-177; read-out: HDAC3, IC50, ELISA (KI-177).

A further data set relates to HH cells. The data set is described as follows: MTS cell viability assay, HH. The data set is classed as cell-based. As to conditions: Homo sapiens, 72 hr, read-out: HH, IG50, MTS. The method, then:
The MTS cell viability assay was used to determine the potency of proliferation inhibitor with. MTS measures mitochondrial dehydrogenase activity and serves as surrogate readout for the number of viable cells. The protocol described below is based upon the “CellTiter 96 Aqueous Non-Radioactive Cell Proliferation Assay” sold by Promega (Technical Bulletin No. 169).
as §2
For orientation: Tetrazolium dyes change colour on reduction, which living cells bring about.

A further data set has as its system MJ cells. The experiment in a line: MTS cell viability assay, MJ. In kind it is cell-based. As to conditions: 72 hr, read-out: MJ, IG50, MTS. The method, then: as §1, §2
The target in another data set is HDAC5 (Homo sapiens, UniProt Q9UQL6). The experiment in a line: HDAC isoform assay, HDAC5.
For a further data set, the target named is T4, HDAC6 (Homo sapiens, UniProt Q9UBN7).
T4 sequence (Q9UBN7 1-1215): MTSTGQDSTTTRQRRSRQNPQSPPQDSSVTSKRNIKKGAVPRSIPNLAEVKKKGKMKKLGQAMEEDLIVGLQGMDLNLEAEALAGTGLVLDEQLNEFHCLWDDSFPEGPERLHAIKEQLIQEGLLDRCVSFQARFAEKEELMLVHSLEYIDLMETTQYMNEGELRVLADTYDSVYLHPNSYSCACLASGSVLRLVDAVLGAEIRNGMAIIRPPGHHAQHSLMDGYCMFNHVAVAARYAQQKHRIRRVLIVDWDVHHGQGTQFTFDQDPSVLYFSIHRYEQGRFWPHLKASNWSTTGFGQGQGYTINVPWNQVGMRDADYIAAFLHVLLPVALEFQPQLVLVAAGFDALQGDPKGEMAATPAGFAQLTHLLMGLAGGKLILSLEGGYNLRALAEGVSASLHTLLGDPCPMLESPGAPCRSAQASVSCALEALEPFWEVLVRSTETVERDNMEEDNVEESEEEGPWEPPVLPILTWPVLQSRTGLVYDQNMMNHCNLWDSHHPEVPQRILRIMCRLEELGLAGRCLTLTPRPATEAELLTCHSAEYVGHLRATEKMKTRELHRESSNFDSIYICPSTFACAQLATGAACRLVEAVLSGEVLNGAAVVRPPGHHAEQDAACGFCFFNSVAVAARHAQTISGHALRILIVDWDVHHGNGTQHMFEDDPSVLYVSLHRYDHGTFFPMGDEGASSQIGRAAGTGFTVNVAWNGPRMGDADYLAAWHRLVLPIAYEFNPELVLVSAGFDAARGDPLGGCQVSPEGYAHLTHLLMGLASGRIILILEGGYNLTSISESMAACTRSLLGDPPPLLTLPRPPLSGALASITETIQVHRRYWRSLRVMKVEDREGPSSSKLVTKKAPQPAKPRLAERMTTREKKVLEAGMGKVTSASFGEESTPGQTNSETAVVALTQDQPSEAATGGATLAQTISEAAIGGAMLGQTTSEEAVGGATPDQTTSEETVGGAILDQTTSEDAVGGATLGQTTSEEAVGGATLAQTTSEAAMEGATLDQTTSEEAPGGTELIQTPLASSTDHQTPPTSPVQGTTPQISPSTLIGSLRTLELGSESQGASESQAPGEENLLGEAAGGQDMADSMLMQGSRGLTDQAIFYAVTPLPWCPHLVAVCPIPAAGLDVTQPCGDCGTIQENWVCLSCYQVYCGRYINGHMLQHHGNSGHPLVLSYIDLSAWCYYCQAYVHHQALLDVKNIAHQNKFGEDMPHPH
The data set is described as follows: HDAC isoform assay, HDAC6.

Another data set deals with T5, HDAC4 (Homo sapiens, UniProt P56524).
T5 construct: purchased BioMol
The experiment in a line: HDAC isoform assay, HDAC4. The data set is classed as biochemical. As to conditions: substrate KI-177; read-out: HDAC4, IC50, ELISA (KI-177).

T1 sequence (Q13547 whole entry): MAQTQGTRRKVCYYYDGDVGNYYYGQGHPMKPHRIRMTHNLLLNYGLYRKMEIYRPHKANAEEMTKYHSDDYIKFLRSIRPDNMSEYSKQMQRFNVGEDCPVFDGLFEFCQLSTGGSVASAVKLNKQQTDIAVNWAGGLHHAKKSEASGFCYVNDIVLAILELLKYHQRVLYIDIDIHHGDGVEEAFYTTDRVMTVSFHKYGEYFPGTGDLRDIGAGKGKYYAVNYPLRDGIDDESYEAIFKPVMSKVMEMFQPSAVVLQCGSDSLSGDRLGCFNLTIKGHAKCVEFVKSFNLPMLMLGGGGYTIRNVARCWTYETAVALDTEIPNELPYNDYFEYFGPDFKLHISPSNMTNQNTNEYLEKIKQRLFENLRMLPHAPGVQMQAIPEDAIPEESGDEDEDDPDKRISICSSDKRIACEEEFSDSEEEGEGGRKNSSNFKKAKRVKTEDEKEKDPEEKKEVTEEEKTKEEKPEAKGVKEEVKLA
T3 sequence (O15379 whole entry): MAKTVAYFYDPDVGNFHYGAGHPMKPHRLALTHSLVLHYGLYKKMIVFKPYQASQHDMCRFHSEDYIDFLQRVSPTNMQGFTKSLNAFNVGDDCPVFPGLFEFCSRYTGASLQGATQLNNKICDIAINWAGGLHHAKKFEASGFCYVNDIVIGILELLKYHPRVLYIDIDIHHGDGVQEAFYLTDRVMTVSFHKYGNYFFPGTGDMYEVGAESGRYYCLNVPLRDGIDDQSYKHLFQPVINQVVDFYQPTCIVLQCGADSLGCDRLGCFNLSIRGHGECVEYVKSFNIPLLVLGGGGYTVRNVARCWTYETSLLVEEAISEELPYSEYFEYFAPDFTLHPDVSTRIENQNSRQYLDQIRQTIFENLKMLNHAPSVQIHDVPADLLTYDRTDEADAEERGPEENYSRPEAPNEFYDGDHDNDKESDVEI
T3 sequence (O75376 395-489 partner limits assumed): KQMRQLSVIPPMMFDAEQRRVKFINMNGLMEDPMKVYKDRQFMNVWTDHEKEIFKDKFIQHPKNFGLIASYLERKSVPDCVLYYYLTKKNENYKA
T2 sequence (Q92769 whole entry): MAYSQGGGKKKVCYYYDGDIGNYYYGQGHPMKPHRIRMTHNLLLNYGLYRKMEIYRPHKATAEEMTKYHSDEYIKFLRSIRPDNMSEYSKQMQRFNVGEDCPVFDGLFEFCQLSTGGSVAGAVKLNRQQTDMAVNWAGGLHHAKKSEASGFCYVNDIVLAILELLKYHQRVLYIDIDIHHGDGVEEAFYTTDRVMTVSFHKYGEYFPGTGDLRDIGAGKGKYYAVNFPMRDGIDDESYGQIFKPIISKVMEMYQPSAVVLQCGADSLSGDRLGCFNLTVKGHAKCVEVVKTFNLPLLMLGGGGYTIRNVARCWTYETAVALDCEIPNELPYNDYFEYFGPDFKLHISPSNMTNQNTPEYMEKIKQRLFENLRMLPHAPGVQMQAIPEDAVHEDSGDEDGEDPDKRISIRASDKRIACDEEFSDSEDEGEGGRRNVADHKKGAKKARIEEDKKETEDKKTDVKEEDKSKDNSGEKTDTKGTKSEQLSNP
Sequence of HDAC5 (Q9UQL6 whole entry, canonical isoform): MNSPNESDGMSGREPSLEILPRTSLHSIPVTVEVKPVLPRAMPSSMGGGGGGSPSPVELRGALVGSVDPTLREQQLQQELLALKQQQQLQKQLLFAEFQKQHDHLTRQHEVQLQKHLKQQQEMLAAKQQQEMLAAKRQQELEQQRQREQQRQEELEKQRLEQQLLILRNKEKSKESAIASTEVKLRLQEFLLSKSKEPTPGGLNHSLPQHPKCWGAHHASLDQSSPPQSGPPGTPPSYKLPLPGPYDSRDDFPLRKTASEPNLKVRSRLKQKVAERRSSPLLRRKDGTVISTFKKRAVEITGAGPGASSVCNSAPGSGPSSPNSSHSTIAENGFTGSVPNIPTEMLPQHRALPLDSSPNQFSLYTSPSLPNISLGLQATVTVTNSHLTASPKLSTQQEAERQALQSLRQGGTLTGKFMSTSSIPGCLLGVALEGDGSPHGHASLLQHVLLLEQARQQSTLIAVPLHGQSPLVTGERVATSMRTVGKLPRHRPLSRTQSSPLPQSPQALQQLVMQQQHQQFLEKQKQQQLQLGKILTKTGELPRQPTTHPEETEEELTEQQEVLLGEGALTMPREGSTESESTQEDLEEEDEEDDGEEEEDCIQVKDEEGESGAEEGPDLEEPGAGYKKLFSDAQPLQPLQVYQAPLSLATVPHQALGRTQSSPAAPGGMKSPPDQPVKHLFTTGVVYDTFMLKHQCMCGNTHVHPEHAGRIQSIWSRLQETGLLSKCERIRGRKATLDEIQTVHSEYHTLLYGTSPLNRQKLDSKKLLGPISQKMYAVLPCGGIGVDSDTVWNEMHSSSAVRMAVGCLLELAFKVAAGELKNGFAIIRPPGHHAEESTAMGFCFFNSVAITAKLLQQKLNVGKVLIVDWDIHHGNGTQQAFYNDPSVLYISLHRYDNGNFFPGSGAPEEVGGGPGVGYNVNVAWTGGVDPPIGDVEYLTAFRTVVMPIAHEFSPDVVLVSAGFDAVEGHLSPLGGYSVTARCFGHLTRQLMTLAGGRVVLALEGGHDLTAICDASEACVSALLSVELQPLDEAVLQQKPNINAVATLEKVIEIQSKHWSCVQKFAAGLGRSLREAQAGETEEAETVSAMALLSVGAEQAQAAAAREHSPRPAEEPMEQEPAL
T5 sequence (P56524 whole entry): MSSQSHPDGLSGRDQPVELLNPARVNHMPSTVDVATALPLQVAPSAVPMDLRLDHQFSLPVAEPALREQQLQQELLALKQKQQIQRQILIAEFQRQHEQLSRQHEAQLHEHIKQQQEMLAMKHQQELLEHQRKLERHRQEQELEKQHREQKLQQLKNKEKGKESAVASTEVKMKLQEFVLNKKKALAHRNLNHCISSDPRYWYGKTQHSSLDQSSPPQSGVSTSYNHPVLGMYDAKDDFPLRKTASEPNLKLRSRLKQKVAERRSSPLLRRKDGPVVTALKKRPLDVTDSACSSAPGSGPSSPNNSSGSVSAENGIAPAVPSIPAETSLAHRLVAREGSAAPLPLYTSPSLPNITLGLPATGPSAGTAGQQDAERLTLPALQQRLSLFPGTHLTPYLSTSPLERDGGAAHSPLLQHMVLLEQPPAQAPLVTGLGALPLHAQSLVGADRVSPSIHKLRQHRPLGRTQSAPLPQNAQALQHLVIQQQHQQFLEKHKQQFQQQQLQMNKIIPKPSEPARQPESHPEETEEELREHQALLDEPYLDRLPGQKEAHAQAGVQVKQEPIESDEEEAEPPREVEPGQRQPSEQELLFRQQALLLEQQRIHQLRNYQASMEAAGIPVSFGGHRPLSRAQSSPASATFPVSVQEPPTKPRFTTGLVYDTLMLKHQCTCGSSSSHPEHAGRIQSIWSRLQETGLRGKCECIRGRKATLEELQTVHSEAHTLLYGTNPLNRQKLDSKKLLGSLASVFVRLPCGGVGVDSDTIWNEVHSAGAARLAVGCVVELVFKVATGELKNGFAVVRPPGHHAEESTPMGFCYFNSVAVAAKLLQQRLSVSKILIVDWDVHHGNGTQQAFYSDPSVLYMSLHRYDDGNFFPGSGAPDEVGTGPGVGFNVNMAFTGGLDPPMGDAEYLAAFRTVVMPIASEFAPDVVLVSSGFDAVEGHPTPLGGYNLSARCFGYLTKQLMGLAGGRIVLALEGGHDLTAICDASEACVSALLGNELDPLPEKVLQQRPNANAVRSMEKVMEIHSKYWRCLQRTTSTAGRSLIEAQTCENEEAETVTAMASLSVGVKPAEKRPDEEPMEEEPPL
Description for HDAC3: The assay measures the ability of a small molecule to inhibit deacetylation of the substrate. Activator reagent recognizes the substrate only if the lysine has been deacetylated.
This homogeneous assay in performed in the same well without washing steps. The HDAC source, nuclear HeLa extract, is incubated with substrate in the presence of an inhibitor compound. At the end of the reaction time, activator solution, containing Trypsin and TSA, is added to stop the deacetylation reaction, and cleave the amino-coumarin from the deacetylated substrate. The plate is then read on either a Perkin Elmer Victor or Envision system using Umbilliferone filter set. […] The signal is directly proportional to the activity of HDACs and compound inhibition of HDAC is monitored by a decrease in signal.

Broadly, the melting point is the temperature of the solid-liquid transition. The compound `O=C(CCCCCCCNC(=O)c1cn2c3c(cccc13)CCC2)NO` returned a melting point of 174 to 176 °C.

Take `O=C(CCCCNC(=O)c1cn2c3c(cccc13)CCC2)NO` [compound 5, N-[5-(hydroxyamino)-5-oxopentyl]-5,6-dihydro-4H-pyrrolo[3,2,1-ij]quinoline-1-carboxamide]: the melting point was in the range of 179 to 181 °C. The compound also came in with an IC50 against HDAC1 of 583 nM. This compound also showed an IC50 in data set [1] of 809 nM. Further, in the data set on HCT-116 cells, the IC50 is 5.81 µM.

In turn, `O=C(NO)c1ccc(CNC(=O)c2cn3c4c(cccc24)CCC3)cc1` [compound 6, N-{4-[(hydroxyamino)carbonyl]benzyl}-5,6-dihydro-4H-pyrrolo[3,2,1-ij]quinoline-1-carboxamide] returned a melting point of 191 to 192 °C. Further, the IC50 at HDAC2 came to 3000 nM. Besides, the IC50 at HDAC3 came out at 26.5 nM. Besides, the IC50 in [1] was 70.8 nM. Moreover, the IC50 with HCT-116 cells is 0.457 µM. In addition, the IC50 with HH cells came out at 91 nM. The IC50 in the data set on MJ cells stood at 580 nM. In addition, the IC50 at HDAC5 turned out to be 36.9 nM. Moreover, the IC50 at HDAC6 came to 7.82 nM.

As to `O=C(CCCCCCN(Cc1ccccc1)C(=O)c1cn2c3c(cccc13)CCC2)NO` [compound 14, N-benzyl-N-[7-(hydroxyamino)-7-oxoheptyl]-5,6-dihydro-4H-pyrrolo[3,2,1-ij]quinoline-1-carboxamide], the melting point was 71 to 73 °C. Moreover, in data set [1], the IC50 is 780 nM. In the data set on HCT-116 cells, the IC50 was found to be 3.8 µM.

For `O=C(Cc1ccc(NC(=O)c2cn3c4c(cccc24)CCC3)cc1)NO` [compound 16, N-{4-[2-(hydroxyamino)-2-oxoethyl]phenyl}-5,6-dihydro-4H-pyrrolo[3,2,1-ij]quinoline-1-carboxamide], the melting point lay in the range of 199 to 202 °C. In data set [1], this compound displayed an IC50 of 2000 nM.

Turning to `CC(=O)CCC1CCN(C(=O)c2cn3c4c(cccc24)CCC3)CC1` [compound 19, 4-[1-(5,6-dihydro-4H-pyrrolo[3,2,1-ij]quinolin-1-ylcarbonyl)piperidin-4-yl]butan-2-one], the IC50 in [1] worked out at 20000 nM.

Regarding `Nc1ccccc1NC(=O)CCCCCCNC(=O)c1cn2c3c(cccc13)CCC2` [compound 20, N-{7-[(2-aminophenyl)amino]-7-oxoheptyl}-5,6-dihydro-4H-pyrrolo[3,2,1-ij]quinoline-1-carboxamide], the melting point lay in the range of 144 to 145 °C. In data set [1], this compound yielded an IC50 of 4390 nM.

In turn, `Nc1cc(Cl)c(Cl)cc1NC(=O)CCCCCCNC(=O)c1cn2c3c(cccc13)CCC2` [compound 21, N-{7-[(2-amino-4,5-dichlorophenyl)amino]-7-oxoheptyl}-5,6-dihydro-4H-pyrrolo[3,2,1-ij]quinoline-1-carboxamide] came in with a melting point of 124 to 125 °C. Moreover, the IC50 in [1] was 15500 nM.

The compound `COc1cccc(-c2cn3cc(C(=O)NCCCCCCC(=O)NO)sc3n2)c1` [compound 22, N-[7-(hydroxyamino)-7-oxoheptyl]-6-(3-methoxyphenyl)imidazo[2,1-b][1,3]thiazole-2-carboxamide] displayed a melting point of 209 to 211 °C. This compound returned an IC50 in data set [1] of 487 nM.

`O=C(CCCCCCNC(=O)c1cc2cccc3c2n1CCC3)NO` [compound 23, N-[7-(hydroxyamino)-7-oxoheptyl]-5,6-dihydro-4H-pyrrolo[3,2,1-ij]quinoline-2-carboxamide] yielded a melting point of 160 to 161 °C. The compound further showed an IC50 against HDAC1 of 17 nM. At HDAC2, the IC50 is 3000 nM. Moreover, the IC50 on HDAC3 came out at 37 nM. In addition, the IC50 on HDAC4 was 28 nM. Moreover, the IC50 against HDAC6 amounted to 43 nM.
